Source: patent US20240148821A1, “PHARMACEUTICAL USE OF CYCLIC PEPTIDE COMPOUND” (CHUGAI SEIYAKU KABUSHIKI KAISHA, priority 2021, published 2024)
Numbered stars: 1 amine (or outer) side, 2 acyl side, 3 side chain; on linkers, the order of the positions; unused ones are H or OH. Bridge positions count the residues as written; N and C are the ends. Square brackets hold non-standard residues; d marks the D form. Peptide text beside a SMILES is read from it. * marks the point of attachment. hPhe(3,5-F2-4-CF3) = N[C@@H](CCc1cc(F)c(C(F)(F)F)c(F)c1)C(=O)O; hPhe(3-Cl-4-CF3) = N[C@@H](CCc1ccc(C(F)(F)F)c(Cl)c1)C(=O)O; hPhe(3-F,4-CF3) = N[C@@H](CCc1ccc(C(F)(F)F)c(F)c1)C(=O)O; NEtPhe(4-CF3) = CCN[C@@H](Cc1ccc(C(F)(F)F)cc1)C(=O)O; NMePhe(4-CF3) = CN[C@@H](Cc1ccc(C(F)(F)F)cc1)C(=O)O; hPhe(4-CF3) = N[C@@H](CCc1ccc(C(F)(F)F)cc1)C(=O)O; NMePhe(4-Cl) = CN[C@@H](Cc1ccc(Cl)cc1)C(=O)O; NMePhe(4-Me) = CN[C@@H](Cc1ccc(C)cc1)C(=O)O; NMedβ3hAla = C[C@H](CC(=O)[*:2])N(C)[*:1]; X133 = O=C(C[C@H](N[*:1])C(F)(F)F)[*:2]; NMeGly(cPent) = CN[C@H](C(=O)O)C1CCCC1; Pro(4,4-F2) = O=C(O)[C@@H]1CC(F)(F)CN1; X132 = O=C(CN(CCOCC(F)(F)F)[*:1])[*:2]; NMeCha = CN[C@@H](CC1CCCCC1)C(=O)O; NMeChg = CN[C@H](C(=O)O)C1CCCCC1; NMeI = CC[C@H](C)[C@H](NC)C(=O)O; NMeD = CN[C@@H](CC(=O)O)C(=O)O; NMeL = CN[C@@H](CC(C)C)C(=O)O; NMeNle = CCCC[C@H](NC)C(=O)O; NMeV = CN[C@H](C(=O)O)C(C)C; d(β3hA) = C[C@@H](N)CC(=O)O; NMeS = CN[C@@H](CO)C(=O)O; NMeA = CN[C@@H](C)C(=O)O; NMeAib = CNC(C)(C)C(=O)O; Piperidide = C1CCN(*)CC1; Pyrrolidide = C1CCN(*)C1; dNMeA = CN[C@H](C)C(=O)O; Ac5c = NC1(C(=O)O)CCCC1; Aze = O=C(O)[C@@H]1CCN1; Ac4c = NC1(C(=O)O)CCC1; Aib = CC(C)(N)C(=O)O; Sar = CNCC(=O)O; Propyl = CCC*

Target: protein-protein interaction between Kras and SOS1 (biotin-tagged human Kras loaded with GDP, His-tagged human SOS1) (Homo sapiens (Human), UniProt P01116, G12D)
Experiment: Protein-protein interaction inhibition between Kras and SOS1 (KrasG12D-SOS PPI) using AlphaScreen;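 also: kras produced in E. coli, Ni-coupled donor beads and streptavidin acceptor beads, excitation 680 nm with emission detected at 520–620 nm via singlet oxygen transfer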
Assay type: biochemical
Details: AlphaScreen; biotin-tagged human Kras loaded with GDP, His-tagged human SOS1; read-out: KRAS G12D-SOS PPI IC50

SMILES	IC50 [nM]
CC[C@H](C)[C@@H]1NC(=O)[C@H](CC(C)C)N(C)C(=O)C[C@@H](C)NC(=O)[C@H](C2CCCC2)N(C)C(=O)C2(CCCC2)NC(=O)[C@@H]2CCCN2C(=O)[C@H](CCc2ccc(C(F)(F)F)c(Cl)c2)NC(=O)CN(C)C(=O)[C@H](Cc2ccc(C(F)(F)F)cc2)N(C)C(=O)[C@@H]2CCN2C(=O)CN(C)C1=O [Compound 1496] (cyclo([Ac5c][NMeGly(cPent)][d(β3hA)][NMeL]I[Sar][Aze][NMePhe(4-CF3)][Sar][hPhe(3-Cl-4-CF3)]P))	2
CCCOC[C@H]1C(=O)N(C)CC(=O)N[C@@H](CCc2ccc(C(F)(F)F)c(F)c2)C(=O)N2CCC[C@H]2C(=O)NC2(CCCC2)C(=O)N(C)[C@@H]([C@@H](C)CC)C(=O)N(C)[C@H](C(=O)N2CCCC2)CC(=O)N(C)[C@@H](CC(C)C)C(=O)N[C@@H]([C@@H](C)CC)C(=O)N(C)[C@@H](C)C(=O)N2CC[C@H]2C(=O)N1C [Compound 684] ([NMeL]I[NMeA][Aze][NMeS](Propyl)[Sar][hPhe(3-F,4-CF3)]P[Ac5c][NMeI][NMeD]-Pyrrolidide; lactam N-11)	1.9
CC[C@H](C)[C@@H]1NC(=O)[C@H](C)N(C)C(=O)C[C@@H](C)NC(=O)[C@H](C2CCCC2)N(C)C(=O)C2(CCCC2)NC(=O)[C@@H]2CCCN2C(=O)[C@H](CCc2ccc(C(F)(F)F)c(Cl)c2)NC(=O)[C@@H](C)N(C)C(=O)[C@H](Cc2ccc(C(F)(F)F)cc2)N(C)C(=O)[C@@H]2CCN2C(=O)[C@H](C)N(C)C1=O [Compound 1497] (cyclo([Ac5c][NMeGly(cPent)][d(β3hA)][NMeA]I[NMeA][Aze][NMePhe(4-CF3)][dNMeA][hPhe(3-Cl-4-CF3)]P))	25
CCCC[C@H]1C(=O)N2CC[C@H]2C(=O)N(C)[C@@H](CC2CCCCC2)C(=O)N(C)CC(=O)N[C@@H](CCc2ccc(C(F)(F)F)c(Cl)c2)C(=O)N2CCC[C@H]2C(=O)NC2(CCCC2)C(=O)N(C)[C@@H](C(C)C)C(=O)N[C@H](C)CC(=O)N(C)[C@@H](CC(C)C)C(=O)N[C@@H]([C@@H](C)CC)C(=O)N1C [Compound 1548] (cyclo([Ac5c][NMeV][d(β3hA)][NMeL]I[NMeNle][Aze][NMeCha][Sar][hPhe(3-Cl-4-CF3)]P))	140
CC[C@H](C)[C@@H]1NC(=O)[C@H](C)N(C)C(=O)C[C@@H](C)N(C)C(=O)[C@H](CC(C)C)NC(=O)C(C)(C)N(C)C(=O)[C@H](CC(C)C)NC(=O)[C@H](CCc2ccc(C(F)(F)F)c(Cl)c2)NC(=O)[C@@H](C)N(C)C(=O)[C@H](CC2CCCCC2)N(C)C(=O)CN(C)C(=O)CN(C)C1=O [Compound 1390] (cyclo(I[Sar][Sar][NMeCha][dNMeA][hPhe(3-Cl-4-CF3)]L[NMeAib]L[NMedβ3hAla][NMeA]))	280
CC[C@H](C)[C@@H]1NC(=O)[C@H](CC(C)C)N(C)C(=O)C[C@@H](C(F)(F)F)NC(=O)[C@H]([C@@H](C)CC)N(C)C(=O)C2(CCCC2)NC(=O)[C@@H]2CCCN2C(=O)[C@H](CCc2ccc(C(F)(F)F)c(Cl)c2)NC(=O)CN(C)C(=O)[C@H](Cc2ccc(C)cc2)N(C)C(=O)[C@@H]2CCN2C(=O)[C@H](C)N(C)C1=O [Compound 1919] (cyclo([Ac5c][NMeI][X133][NMeL]I[NMeA][Aze][NMePhe(4-Me)][Sar][hPhe(3-Cl-4-CF3)]P))	210
CC[C@H](C)[C@@H]1NC(=O)[C@H](CC(C)C)N(C)C(=O)C[C@@H](C(=O)N2CCCCC2)N(C)C(=O)[C@H](C2CCCCC2)N(C)C(=O)C2(CCCC2)NC(=O)CN(CCOCC(F)(F)F)C(=O)[C@H](CCc2ccc(C(F)(F)F)c(Cl)c2)NC(=O)CN(C)C(=O)[C@H](CC2CCCCC2)N(C)C(=O)CN(C)C(=O)CN(C)C1=O [Compound 2024] ([NMeL]I[Sar][Sar][NMeCha][Sar][hPhe(3-Cl-4-CF3)][X132][Ac5c][NMeChg][NMeD]-Piperidide; lactam N-11 (inferred); C-terminus assumed)	4.3
CC[C@H](C)[C@@H]1NC(=O)[C@H](CC2CCCCC2)N(C)C(=O)C[C@@H](C)NC(=O)[C@H](CC(C)C)N(C)C(=O)C(C)(C)NC(=O)[C@H](CC(C)C)N(C)C(=O)[C@H](CCc2ccc(C(F)(F)F)cc2)NC(=O)CN(C)C(=O)[C@H](Cc2ccc(Cl)cc2)N(C)C(=O)CN(C)C(=O)CN(C)C1=O [Compound 615] (cyclo([Aib][NMeL][d(β3hA)][NMeCha]I[Sar][Sar][NMePhe(4-Cl)][Sar][hPhe(4-CF3)][NMeL]))	220
CC[C@H](C)[C@@H]1NC(=O)[C@H](CC(C)C)N(C)C(=O)C[C@@H](C)N(C)C(=O)[C@H](C2CCCCC2)N(C)C(=O)C2(CCC2)NC(=O)[C@@H]2CC(F)(F)CN2C(=O)[C@H](CCc2cc(F)c(C(F)(F)F)c(F)c2)NC(=O)CN(C)C(=O)[C@H](Cc2ccc(C(F)(F)F)cc2)N(C)C(=O)[C@@H]2CCN2C(=O)[C@H](C)N(C)C1=O [Compound 34] (cyclo([Ac4c][NMeChg][NMedβ3hAla][NMeL]I[NMeA][Aze][NMePhe(4-CF3)][Sar][hPhe(3,5-F2-4-CF3)][Pro(4,4-F2)]))	74
CO[C@H](C)[C@@H]1NC(=O)[C@H](CC(C)C)N(C)C(=O)C[C@@H](C(=O)N2CCCCC2)N(C)C(=O)[C@H](C(C)C)N(C)C(=O)C2(CCCC2)NC(=O)[C@@H]2CCCN2C(=O)[C@H](CCc2ccc(C(F)(F)F)c(Cl)c2)NC(=O)CN(C)C(=O)[C@H](CC2CCCCC2)N(C)C(=O)[C@@H]2CCN2C(=O)[C@H](C)N(C)C1=O [Compound 497] ([NMeL]T(Me)[NMeA][Aze][NMeCha][Sar][hPhe(3-Cl-4-CF3)]P[Ac5c][NMeV][NMeD]-Piperidide; lactam N-11)	4.3
CC[C@H](C)[C@@H]1NC(=O)[C@H](C(C)C)N(C)C(=O)C[C@@H](C)NC(=O)[C@H](C(C)C)N(C)C(=O)C2(CCCC2)NC(=O)[C@H](CC(C)C)N(C)C(=O)[C@H](CCc2ccc(C(F)(F)F)c(Cl)c2)NC(=O)CN(C)C(=O)[C@H](Cc2ccc(Cl)cc2)N(C)C(=O)CN(C)C(=O)CN(C)C1=O [Compound 1069] (cyclo([Ac5c][NMeV][d(β3hA)][NMeV]I[Sar][Sar][NMePhe(4-Cl)][Sar][hPhe(3-Cl-4-CF3)][NMeL]))	17
CC[C@H](C)[C@@H]1NC(=O)[C@H](CC(C)C)N(C)C(=O)C[C@@H](C)NC(=O)[C@H](C2CCCC2)N(C)C(=O)C2(CCCC2)NC(=O)[C@@H]2CCCN2C(=O)[C@H](CCc2ccc(C(F)(F)F)c(Cl)c2)NC(=O)[C@@H](C)N(C)C(=O)[C@H](Cc2ccc(C(F)(F)F)cc2)N(C)C(=O)[C@@H]2CCN2C(=O)[C@H](C)N(C)C1=O [Compound 1482] (cyclo([Ac5c][NMeGly(cPent)][d(β3hA)][NMeL]I[NMeA][Aze][NMePhe(4-CF3)][dNMeA][hPhe(3-Cl-4-CF3)]P))	88
CC[C@H](C)[C@@H]1NC(=O)[C@H](CC(C)C)N(C)C(=O)C[C@@H](C)N(C)C(=O)[C@H](C2CCCCC2)N(C)C(=O)C2(CCC2)NC(=O)[C@@H]2CC(F)(F)CN2C(=O)[C@H](CCc2cc(F)c(C(F)(F)F)c(F)c2)NC(=O)CN(C)C(=O)[C@H](Cc2ccc(C(F)(F)F)cc2)N(CC)C(=O)[C@@H]2CCN2C(=O)[C@H](C)N(C)C1=O [Compound 377] (cyclo([Ac4c][NMeChg][NMedβ3hAla][NMeL]I[NMeA][Aze][NEtPhe(4-CF3)][Sar][hPhe(3,5-F2-4-CF3)][Pro(4,4-F2)]))	24
